Reference: patent US20210386823A1, “THERAPEUTIC AGENT FOR CARTILAGE DISORDER” (OSAKA UNIVERSITY, priority 2018, published 2021)

Test system: cartilage defect model mice (knee joint articular cartilage defect)
Test: Efficacy of HMGB1 fragment peptide on articular cartilage defect in cartilage defect model mouse
Assay type: in vivo, C57BL/6J mice
Description: C57BL/6J mice (6-7 weeks old, male, wild type) were purchased from CLEA Japan, Inc., and then acclimated to animal facilities until they were 8 weeks old (weighing approximately 25 g at 8 weeks old). While the mice were under 1.5-2.0% (v/v) isoflurane inhalation anesthesia, shaving was performed on the lower extremity of the side to create a cartilage defect, and a longitudinal skin incision of approximately 1 cm was applied with scissors to the middle of the knee joint. An articular dissection of approximately 1 cm was performed under the microscope with a sharp blade (#11) in the parapatellar medial approach to dislocate the patella laterally. The femoral pulley was confirmed, and a 0.5×0.5×0.5 mm cartilage defect was created at the center of the pulley using a 0.5 mm diameter hand-turned drill (manufactured by MEISINGER USA, L.L.C.). Inside of the joint was washed with saline, then the articular capsule was continuously sutured with 8-0 vicryl to prevent patellar dislocation, and the skin was sutured with 5-0 nylon thread.
Cartilage defect model mice created as described above were divided into an HMGB1 peptide (1-44) administration group (n=16) and a control group (n=16). To the HMGB1 peptide (1-44) administration group, a solution of HMGB1 peptide (1-44) adjusted to a concentration of 1 μg/μL with saline as solvent was administered from the tail vein in an amount of 100 μL/mouse (4 mg/kg as the dose of peptide) immediately after the cartilage defect was created, and thereafter, the same dose was administered twice a week until 4 weeks after the cartilage defect was created (hereinafter also referred to simply as “post-operative”). To the control group, saline was administered from the tail vein in an amount of 100 μL to each mouse on the same schedule as in the HMGB1 peptide (1-44) administration group.
In both the HMGB1 peptide (1-44) administration group and the control group, four mice were sacrificed at each time point of 2, 4, 8 and 12 weeks post-operative, and the cartilage defect creation sites of knee joints were removed for microscopic observation and tissue staining. For microscopic observation, the status of cartilage tissue was evaluated by scoring the gross appearance according to the criteria shown in Table 1 below using the Wayne scoring system. In addition, sections of cartilage tissue were created for histological evaluation and subjected to safranin O staining, and the status of cartilage tissue was evaluated by calculating the Wakitani score from the tissue images according to the criteria shown in Table 2 below.

HMGB1 peptide (1-44): Peptide consisting of amino acid residues 1-44 (SEQ ID NO: 1) of human-derived HMGB1 protein, chemically synthesized by a solid-phase method (MGKGDPKKPRGKMSSYAFFVQTCREEHKKKHPDASVNFSEFSKK)
Microscopic observation (gross appearance) of cartilage defect sites of knee joints (4 mg/kg tail vein, twice a week until 4 weeks post-operative, observed at 2, 4, 8 and 12 weeks post-operative, vs control group (saline)): recovered to a state closer to normal than those of the control group | Safranin O staining of cartilage tissue sections (regeneration of defective cartilage tissue) (4 mg/kg tail vein, twice a week until 4 weeks, 2, 4, 8 and 12 weeks post-operative, FIGS. 3 and 5): defective cartilage tissue was fully regenerated | Wayne score (gross appearance) (4 mg/kg tail vein, twice a week until 4 weeks, 2, 4, 8 and 12 weeks post-operative, vs control group, FIG. 2): higher than the control group | Wakitani score (histological evaluation) (4 mg/kg tail vein, twice a week until 4 weeks, 2, 4, 8 and 12 weeks post-operative, vs control group, FIGS. 4 and 6): significantly lower compared to that of the control group | Safranin O staining response of knee joint cartilage tissues compared with normal mice (12 weeks post-operative, compared with cartilage of normal mice (FIG. 8, left)): strong positive response similar to cartilage tissues of knee joints of normal mice
